Results: patent publication US8314092B2, “Substituted [(5H-pyrrolo[2,1-c][1,4]benzodiazepin-11-yl)piperazin-1-yl]-2,2-dimethylpropanoic acid compounds as dual activity H1 inverse agonists/5-HT2A antagonists” (Eli Lilly and Company, priority 2011, dated 2012)
Structures can show the parent of a compound that is named as a salt.

What was measured:
[1] = target: human recombinant H1 receptor (Homo sapiens, UniProt P35367); experiment: H1 competition binding assay ([3H]-Pyrilamine SPA); parameters: expressed in transfected cells
Description: [^3H]-Pyrilamine binding experiments are carried out in SPA (scintillation proximity assay) 96-well format. Membranes used in this assay are prepared from HEK-293 cells stably expressing recombinant H1 receptor (human). The incubation is initiated by the addition of a mixture of WGA PVT SPA beads (1 mg/well, Perkin Elmer (MA, USA) RPNQ0001) and 3 μg membranes to assay buffer (67 mM Tris; pH 7.6) containing 3.5 nM [^3H]-Pyrilamine and varying concentrations of the test compound (10 point concentration response curves). Non-specific binding is determined in the presence of 10 μM Triprolidine. Samples are incubated for four hours at room temperature (22° C.) and then read in a Microbeta Trilux.
(§1) Curves are evaluated using a 4-parameter logistic nonlinear equation to obtain the concentration of competitor causing 50% inhibition of radioligand binding (IC50). Equilibrium dissociation constants (Ki) are calculated according to the equation Ki=IC50/(1+L/Kd), where L equals the concentration of radioligand used in the experiment and Kd equals the equilibrium dissociation constant of the radioligand for the receptor, determined from standard saturation analysis or homologous competition experiments. Reported values for Ki, where n values are indicated, are shown as geometric mean±the standard error of the mean (SEM), with the number of replicate determinations indicated by n. […]

[2] = target: T1, recombinant 5-HT2c receptor (human) (Homo sapiens, UniProt P28335); experiment: 5-HT2c competition binding assay ([125I]-DOI SPA)
T1 construct: expressed in transfected cells
Description: [^125I]-(±)DOI binding experiments are carried out in SPA 96-well format. Membranes used in this assay are prepared from AV-12 cells stably expressing recombinant 5-HT2c receptor (human). The incubation is initiated by the addition of a mixture of WGA PVT SPA beads (0.5 mg/well, Perkin Elmer (MA, USA), RPNQ0001) and 2.5 μg membranes to assay buffer (50 mM Tris-HCl, 10 mM MgCl2, 0.5 mM EDTA, 10 μM pargyline, 0.1% ascorbic acid, pH7.4) containing 0.2 nM [[^125I]-(±)DOI and varying concentrations of the test compound (10 point concentration response curves). Non-specific binding is determined in the presence of 20 μM 1-(1-Naphthyl)piperazine. Samples are incubated for four hours at room temperature (22° C.) and then read in a Microbeta Trilux.
as §1, with “experiments.” for “experiments. Reported values for Ki, where n values are indicated, are shown as geometric mean±the standard error of the mean (SEM), with the number of replicate determinations indicated by n.”

Dopamine D1 = Dopamine D1 (Homo sapiens, UniProt P21728); experiment: Dopamine D1 binding
From the text: (§2) Further, the compounds of the invention may be tested in binding assays and functional activity assays by well known methods for other physiologically important receptors such as, but not limited to, the hERG channel, other serotonin receptors (specifically 5-HT1A, 5-HT1B, 5-HT1D, 5-HT1E, 5-HT1F receptors, lack of agonist activity at 5-HT2B receptors, 5-HT2C, 5-HT4, 5-HTS, 5-HT6, and 5-HT7 receptors), muscarinic receptors, dopaminergic receptors (specifically D1, D2, and D3), GABAA receptors, adrenergic receptors and monoamine transporters. Certain exemplified compounds are tested at these receptors and are shown to lack significant activity.

native GABAA receptors = experiment: GABAA antagonism using native receptors in primary neuronal cultures (FLIPR calcium flux); format: cell-based, rat; details: against 10 μM GABA
Description: Activity of compounds on native GABAA receptors is evaluated by monitoring calcium fluxes using a 96 well format FLIPR® system (Fluorometric Imaging Plate Reader (FLIPR®, Molecular Devices). Briefly, cortical embryonic neurons are dissociated from E18 rat embryos and plated at optimum density into black-walled, transparent bottom poly-D-lysine coated 96-well FLIPR® plates. After loading the cells with a calcium sensitive dye (Fluo-4-AM, Molecular Devices), the cells are bathed in a solution containing low chloride (chloride replaced by gluconate). Under these conditions activation of GABAA receptors causes an efflux of chloride ions (in the direction of the chemical gradient), which results in membrane depolarization and consequently activation of voltage gated calcium channels (VGCCs). Calcium influx through VGCCs is recorded and analysed offline using the FLIPR® system. For a pharmacological validation of the assay, concentration response curves (CRC) are recorded for the standard agonist (GABA) and standard antagonist (Gabazine). […]
The antagonist effects of compounds are quantified using 10-point dose response curves by comparing the peak fluorescent responses to the agonist GABA in the presence and absence of compound. […] Antagonist effects are calculated as a percent of the assay window. […]

Norepinephrine Transport = Norepinephrine Transport (Homo sapiens, UniProt P23975); experiment: Norepinephrine transporter assay; format: binding; details: dihydrochloride
From the text: as §2

Dopamine D3 = Dopamine D3 (Homo sapiens, UniProt P35462); experiment: Dopamine D3 binding
From the text: as §2

Adrenergic alpha2B = Adrenergic alpha2B (Homo sapiens, UniProt P18089); experiment: Adrenergic alpha2B binding
From the text: as §2

5-HT2A receptor = target: T2, 5-HT2A receptor (Mus musculus, UniProt P35363); experiment: Inhibition of DOI induced headshake activity; format: in vivo; details: mice, 10 mg/kg PO, 60 minutes pre-treatment, DOI 3 mg/kg
T2 construct: male C57BL/6J mice (20-25 g, Charles River); from tissue; host or cells: living C57BL/6J mouse (whole animal, behavioural read-out)
Description: (see for example Bartoszyk G D, van Amsterdam C, Böttcher H, Seyfried C A. EMD 281014, a new selective serotonin 5-HT2A receptor antagonist. Eur J Pharmacol. 2003 473: 229-230.) Briefly, male C57BL/6J mice (20-25 g, Charles River) are housed in standard housing conditions (32 mice in a large IVC cage, 07.00 to 19.00 light phase, constant temperature (19-23° C.) and humidity (50%+/−10), ad lib food and water). Mice received either vehicle (0.25% Methyl cellulose), DOI (3 mg/kg in saline) or test compound at 10 mg/kg PO plus DOI (3 mg/kg in saline). Test compounds are individually evaluated in groups of four per experiment with n=4 for each compound, together with vehicle and DOI+vehicle (n=8). After a test compound pre-treatment time of 60 minutes the mice receive either vehicle (saline) or 3 mg/kg DOI dosed subcutaneously, and are then placed into clear perspex observation chambers. […] The data is analyzed using an ANOVA and post-hoc Dunnet's Test. Exemplified compounds are tested essentially as described and are found to inhibit the DOI induced headshake response at greater than 90% at 10 mg/kg. The compound of example 13 is tested essentially as described and is found to inhibit the DOI induced headshake response at 100% at 10 mg/kg.

Adrenergic alpha2B, sequence (P18089 whole entry): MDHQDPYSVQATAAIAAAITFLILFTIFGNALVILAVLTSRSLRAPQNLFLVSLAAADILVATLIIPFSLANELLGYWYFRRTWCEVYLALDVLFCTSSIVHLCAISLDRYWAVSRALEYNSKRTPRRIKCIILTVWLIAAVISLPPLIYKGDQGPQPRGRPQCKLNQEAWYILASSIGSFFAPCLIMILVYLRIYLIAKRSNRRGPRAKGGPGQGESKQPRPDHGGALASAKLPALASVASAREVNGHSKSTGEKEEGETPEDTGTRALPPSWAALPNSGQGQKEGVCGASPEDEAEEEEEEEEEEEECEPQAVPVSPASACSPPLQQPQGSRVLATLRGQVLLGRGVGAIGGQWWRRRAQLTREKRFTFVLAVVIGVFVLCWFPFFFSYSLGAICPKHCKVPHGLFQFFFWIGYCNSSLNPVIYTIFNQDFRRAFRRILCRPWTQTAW
T1 sequence (P28335 33-458): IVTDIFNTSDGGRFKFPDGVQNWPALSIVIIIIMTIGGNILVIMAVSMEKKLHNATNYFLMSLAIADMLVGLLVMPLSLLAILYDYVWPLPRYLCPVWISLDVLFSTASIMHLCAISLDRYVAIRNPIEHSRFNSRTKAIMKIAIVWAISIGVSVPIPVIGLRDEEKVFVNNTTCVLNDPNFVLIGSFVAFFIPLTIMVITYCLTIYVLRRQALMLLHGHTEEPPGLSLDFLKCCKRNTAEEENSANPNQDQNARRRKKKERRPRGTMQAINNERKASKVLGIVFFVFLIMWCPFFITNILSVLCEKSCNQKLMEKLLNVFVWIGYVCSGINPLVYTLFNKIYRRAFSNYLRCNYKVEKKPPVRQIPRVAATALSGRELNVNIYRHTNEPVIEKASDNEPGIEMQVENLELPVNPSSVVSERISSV
Dopamine D3, sequence (P35462 whole entry): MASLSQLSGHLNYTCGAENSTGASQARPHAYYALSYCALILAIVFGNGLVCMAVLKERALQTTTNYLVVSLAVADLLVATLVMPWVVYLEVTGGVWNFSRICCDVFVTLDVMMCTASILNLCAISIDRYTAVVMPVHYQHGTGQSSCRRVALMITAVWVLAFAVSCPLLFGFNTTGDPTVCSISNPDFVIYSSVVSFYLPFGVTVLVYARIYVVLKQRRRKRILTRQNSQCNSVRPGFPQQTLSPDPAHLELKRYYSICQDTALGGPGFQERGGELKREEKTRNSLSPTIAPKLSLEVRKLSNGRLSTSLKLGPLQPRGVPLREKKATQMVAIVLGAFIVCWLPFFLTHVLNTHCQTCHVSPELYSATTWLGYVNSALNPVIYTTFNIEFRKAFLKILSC
Dopamine D1, sequence (P21728 whole entry): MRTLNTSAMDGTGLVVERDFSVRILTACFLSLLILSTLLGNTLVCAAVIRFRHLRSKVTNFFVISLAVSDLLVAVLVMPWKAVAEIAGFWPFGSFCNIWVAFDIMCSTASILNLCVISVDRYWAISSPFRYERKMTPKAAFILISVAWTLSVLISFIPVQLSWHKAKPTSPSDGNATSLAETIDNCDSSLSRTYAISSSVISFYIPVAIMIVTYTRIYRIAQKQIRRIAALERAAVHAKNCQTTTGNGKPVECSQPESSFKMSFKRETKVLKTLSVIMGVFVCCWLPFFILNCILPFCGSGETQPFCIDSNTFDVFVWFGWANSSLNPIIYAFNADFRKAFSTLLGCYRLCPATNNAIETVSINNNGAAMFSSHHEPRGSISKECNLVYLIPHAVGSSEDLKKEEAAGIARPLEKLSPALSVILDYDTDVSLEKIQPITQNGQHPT
human recombinant H1 receptor, sequence (P35367 whole entry): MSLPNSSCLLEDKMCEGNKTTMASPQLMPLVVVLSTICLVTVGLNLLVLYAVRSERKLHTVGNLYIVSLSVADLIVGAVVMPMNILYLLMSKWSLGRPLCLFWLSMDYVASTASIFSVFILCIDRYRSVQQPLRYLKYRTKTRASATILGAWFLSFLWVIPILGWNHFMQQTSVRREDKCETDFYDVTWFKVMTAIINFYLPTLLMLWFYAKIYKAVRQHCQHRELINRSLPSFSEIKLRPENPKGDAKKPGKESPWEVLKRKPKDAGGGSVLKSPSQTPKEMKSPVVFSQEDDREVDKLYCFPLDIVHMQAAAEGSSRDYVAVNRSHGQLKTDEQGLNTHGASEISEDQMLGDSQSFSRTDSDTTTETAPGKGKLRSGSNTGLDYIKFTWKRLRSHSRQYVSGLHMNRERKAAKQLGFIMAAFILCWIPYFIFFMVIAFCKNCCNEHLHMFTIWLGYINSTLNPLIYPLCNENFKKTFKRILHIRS
Norepinephrine Transport, sequence (P23975 whole entry): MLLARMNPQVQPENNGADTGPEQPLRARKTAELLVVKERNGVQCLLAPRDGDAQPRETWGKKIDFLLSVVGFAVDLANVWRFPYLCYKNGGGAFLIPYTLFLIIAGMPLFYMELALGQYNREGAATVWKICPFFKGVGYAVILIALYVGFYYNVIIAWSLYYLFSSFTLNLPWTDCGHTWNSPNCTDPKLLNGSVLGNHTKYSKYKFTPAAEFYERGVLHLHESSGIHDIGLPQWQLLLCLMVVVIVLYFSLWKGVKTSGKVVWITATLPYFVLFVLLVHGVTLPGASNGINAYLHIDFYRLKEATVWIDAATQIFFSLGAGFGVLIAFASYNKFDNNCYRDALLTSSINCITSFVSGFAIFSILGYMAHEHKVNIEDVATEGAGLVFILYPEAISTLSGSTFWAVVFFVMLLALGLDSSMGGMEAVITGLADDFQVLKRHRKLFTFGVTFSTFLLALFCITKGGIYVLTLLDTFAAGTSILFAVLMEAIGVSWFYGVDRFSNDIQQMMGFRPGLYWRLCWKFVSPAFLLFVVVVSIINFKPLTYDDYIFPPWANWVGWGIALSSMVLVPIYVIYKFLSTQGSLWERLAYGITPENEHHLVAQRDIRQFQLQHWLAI
T2 sequence (P35363 whole entry): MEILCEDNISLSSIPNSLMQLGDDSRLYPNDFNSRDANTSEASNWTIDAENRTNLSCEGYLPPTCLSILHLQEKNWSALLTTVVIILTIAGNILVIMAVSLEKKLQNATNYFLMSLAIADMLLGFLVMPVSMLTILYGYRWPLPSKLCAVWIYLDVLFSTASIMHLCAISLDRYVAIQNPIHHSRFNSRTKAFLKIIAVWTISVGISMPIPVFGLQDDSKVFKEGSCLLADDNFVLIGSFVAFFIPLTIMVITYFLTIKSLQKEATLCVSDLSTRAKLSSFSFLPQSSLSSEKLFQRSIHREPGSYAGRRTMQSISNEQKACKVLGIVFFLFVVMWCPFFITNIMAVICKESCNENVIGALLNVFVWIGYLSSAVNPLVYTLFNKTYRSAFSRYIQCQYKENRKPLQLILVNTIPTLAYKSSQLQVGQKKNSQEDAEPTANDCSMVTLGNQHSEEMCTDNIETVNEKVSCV

`Cc1cc2n(c1)Cc1cc(Cl)ccc1N=C2N1CCN(CC(C)(C)C(=O)O)CC1` [Example 13, 3-[4-(7-Chloro-2-methyl-5H-pyrrolo[2,1-c][1,4]benzodiazepin-11-yl)piperazin-1-yl]-2,2-dimethylpropanoic acid dihydrochloride] was tested. Which Ki [1] did it give?
Its Ki is 16.8 nM.

What about the Ki [2] of the same compound?
The Ki was 2370 nM.

And the Ki (Dopamine D1)?
The Ki was 1860 nM.

And the IC50 (native GABAA receptors)?
The IC50 was over 50000 nM.

What about the “Norepinephrine Transport” value (Norepinephrine Transport) of the same compound?
The value was over 526.

And the Ki (Dopamine D3)?
The Ki was over 4110 nM.

What about the Ki (Adrenergic alpha2B) of the same compound?
The Ki was over 4800 nM.

And the “inhibition of DOI induced headshake response” value (5-HT2A receptor)?
Its value is 100%.
